Structures can show the parent of a compound that is named as a salt.
Tests used:
[1] = system: Anemic Decerebrate Rigidity Sample (EMG, M. triceps brachii); assay: Effects on Anemic Decerebrate Rigidity Sample (suppression of EMG of forelimb muscle); type: in vivo, Wistar male rats; conditions: iv, 10 min; rat, 3 mg/kg in physiological saline through femoral vein, 10 minutes after administration; read-out: Suppression rate
[2] = system: Glutamic Acid at Neuromuscular Junctions of Crayfish (opener muscles of the first walking legs); assay: Blocking effects against Glutamic Acid at Neuromuscular Junctions of Crayfish; conditions: 5-minute pretreatment, L-glutamic acid 10^-4 M
[3] = Acute Toxicity (up-and-down method); conditions: mouse, in vivo, iv (caudal vein), ddN male mice
Experimental: Using ddN male mice, the acute toxicity level of each test compound was determined in accordance with an up-and-down method. Some of the test compounds used were dissolved in physiological saline and administered through the caudal vein.

[4] = system: neuraxial muscle relaxing effect; assay: Neuraxial muscle relaxing effect, experiment conducted by the inventors; type: in vivo
[5] = reported by Nikolova; cited from earlier work
glutamic acid = conditions: in higher animals; cited from earlier work
higher animals = conditions: Oleny et al; cited from earlier work
[6] = test compound 2 × 10^-4 M, 200 µM
[7] = test compound 2 × 10^-5 M, 20 µM

Row | SMILES | inhibition in vivo at 3 mg/kg [1] [%] | LD50 [3] [mg/kg] | other results
1 | C[C@@H]1[C@H](c2ccccc2)OC(=O)N1CCN1CCCCC1.Cl (racemic) [Comparative compound 2, (4RS,5SR)-4-methyl-5-phenyl-3-(2-piperidinoethyl)-1,3-oxazolidine-2-one hydrochloride, reference compound] | 3.6 |  | Blocking rate against glutamic acid [2, 6]: 0%
2 | C[C@@H]1[C@@H](c2ccccc2)OC(=O)N1CCN1CCCCC1 (racemic) [Comparative compound 3, (4RS,5RS)-4-methyl-5-phenyl-3-(2-piperidinoethyl)-1,3-oxazolidine-2-one hydrochloride, reference compound] | 2.2 |  | 
3 | C[C@@H]1[C@H](c2ccccc2)OC(=O)N1CCN1CCCC1.Cl (racemic) [Comparative compound 4, (4RS,5SR)-4-methyl-5-phenyl-3-(2-pyrrolidinoethyl)-1,3-oxazolidine-2-one hydrochloride, reference compound] | 1 |  | Blocking rate against glutamic acid [2, 6]: 45%
4 | C[C@@H]1[C@@H](c2ccccc2)OC(=O)N1CCN1CCCC1 (racemic) [Comparative compound 5, (4RS,5RS)-4-methyl-5-phenyl-3-(2-pyrrolidinoethyl)-1,3-oxazolidine-2-one hydrochloride, reference compound] | 3 |  | 
5 | CC(C)[C@@H]1[C@H](c2ccccc2)OC(=O)N1CCCN1CCCCC1 (racemic) [Compound 1, (4RS,5SR)-4-(1-methylethyl)-5-phenyl-3-(3-piperidinopropyl)-1,3-oxazolidine-2-one] | 12 | 29.7 | 
6 | CC(C)[C@@H]1[C@@H](c2ccccc2)OC(=O)N1CCCN1CCCCC1 (racemic) [Compound 2, (4RS,5RS)-4-(1-methylethyl)-5-phenyl-3-(3-piperidinopropyl)-1,3-oxazolidine-2-one] | 19.8 | 18.8 | 
7 | CC(C)C[C@@H]1[C@H](c2ccccc2)OC(=O)N1CCCN1CCCCC1 (racemic) [Compound 3, (4RS,5SR)-4-(2-methylpropyl)-5-phenyl-3-(3-piperidinopropyl)-1,3-oxazolidine-2-one] | 18 | 55.5 | Blocking rate against glutamic acid [2, 6]: 89%
8 | CC(C)C[C@@H]1[C@@H](c2ccccc2)OC(=O)N1CCCN1CCCCC1 (racemic) [Compound 4, (4RS,5RS)-4-(2-methylpropyl)-5-phenyl-3-(3-piperidinopropyl)-1,3-oxazolidine-2-one] | 21.2 | 29.9 | Blocking rate against glutamic acid [2, 6]: 88%
9 | CC(C)[C@@H]1[C@@H](c2ccccc2)OC(=O)N1CCCN1CCCC1 (racemic) [Compound 10, (4RS, 5RS)-4-(1-methylethyl)-5-phenyl-3-(3-pyrrolidinopropyl)-1,3-oxazolidine-2-one] | 18.7 | 54.6 | 
10 | CC(C)C[C@@H]1[C@H](c2ccccc2)OC(=O)N1CCCN1CCCC1 (racemic) [Compound 13, (4RS,5SR)-4-(2-methylpropyl)-5-phenyl-3-(3-pyrrolidinopropyl)-1,3-oxazolidine-2-one] |  | 75.1 | Blocking rate against glutamic acid [2, 6]: 80%
11 | CC(C)C[C@@H]1[C@@H](c2ccccc2)OC(=O)N1CCCN1CCCC1 (racemic) [Compound 14, (4RS,5RS)-4-(2-methylpropyl)-5-phenyl-3-(3-pyrrolidinopropyl)-1,3-oxazolidine-2-one] | 10.2 | 53.2 | 
12 | Cc1ccc([C@@H]2OC(=O)N(CCCN3CCCCC3)[C@@H]2CC(C)C)cc1 (racemic) [Compound 25, (4RS,5SR)-5-(4-methylphenyl)-4-(2-methylpropyl)-3-(3-piperidinopropyl)-1,3-oxazolidine-2-one] | 10.9 | 34.9 | 
13 | COc1ccc([C@@H]2OC(=O)N(CCCN3CCCCC3)[C@@H]2CC(C)C)cc1 (racemic) [Compound 27, (4RS,5SR)-5-(4-methoxyphenyl)-4-(2-methylpropyl)-3-(3-piperidinopropyl)-1,3-oxazolidine-2-one] | 8.4 | 39.8 | 
14 | CC(C)C[C@@H]1[C@H](c2ccc(F)cc2)OC(=O)N1CCCN1CCCCC1 (racemic) [Compound 29, (4RS,5SR)-5-(4-fluorophenyl)-4-(2-methylpropyl)-3-(3-piperidinopropyl)-1,3-oxazolidine-2-one] | 9.9 | 66.1 | 
15 | CCCC[C@@H]1[C@@H](c2ccccc2)OC(=O)N1CCCN1CCCCC1 (racemic) [Compound 35, (4RS,5RS)-4-butyl-5-phenyl-3-(3-piperidinopropyl)-1,3-oxazolidine-2-one] |  |  | Blocking rate against glutamic acid [2, 7]: 68%
16 | CCCC[C@@H]1[C@H](c2ccccc2)OC(=O)N1CCCN1CCCCC1 (racemic) [Compound 36, (4RS,5SR)-4-butyl-5-phenyl-3-(3-piperidinopropyl)-1,3-oxazolidine-2-one] |  |  | Blocking rate against glutamic acid [2, 7]: 53%
17 | CCCCC[C@@H]1[C@@H](c2ccccc2)OC(=O)N1CCCN1CCCCC1 (racemic) [Compound 37, (4RS,5RS)-4-pentyl-5-phenyl-3-(3-piperidinopropyl)-1,3-oxazolidine-2-one] |  |  | Blocking rate against glutamic acid [2, 7]: 58%
18 | CC(C)CC[C@@H]1[C@H](c2ccccc2)OC(=O)N1CCCN1CCCCC1 (racemic) [Compound 40, (4RS,5SR)-4-(3-methylbutyl)-5-phenyl-3-(3-piperidinopropyl)-1,3-oxazolidine-2-one] |  | 53.6 | Blocking rate against glutamic acid [2, 7]: 61%
19 | CCCCCC[C@@H]1[C@@H](c2ccccc2)OC(=O)N1CCCN1CCCCC1 (racemic) [Compound 41, (4RS,5RS)-4-hexyl-5-phenyl-3-(3-piperidinopropyl)-1,3-oxazolidine-2-one] |  |  | Blocking rate against glutamic acid [2, 7]: 69%
20 | CC1C(c2ccccc2)OC(=O)N1CCN1CCCCC1 (stereo not shown) [4-methyl-5-phenyl-3-(2-piperidinoethyl)-1,3-oxazolidine-2-one] |  |  | neuraxial muscle relaxing effect [4]: extremely weak; analgesic effect [5]: has an analgesic effect; anti-convulsion effect [5]: exerts no anti-convulsion; neuraxial muscle relaxing effect [5]: exerts no anti-convulsion nor neuraxial muscle relaxing effects
21 | Cc1ccc(C(=O)C(C)CN2CCCCC2)cc1 (stereo not shown) [Comparative compound 1, toluperisone hydrochloride, reference compound] | 4.8 |  | 
22 | CC(C)C[C@H]1[C@@H](c2ccccc2)OC(=O)N1CCCN1CCCCC1 [Compound 5, (4S,5R)-4-(2-methylpropyl)-5-phenyl-3-(3-piperidinopropyl)-1,3-oxazolidine-2-one] | 37.7 | 69 | Blocking rate against glutamic acid [2, 6]: 91%
23 | CC(C)C[C@@H]1[C@H](c2ccccc2)OC(=O)N1CCCN1CCCCC1 [Compound 6, (4R,5S)-4-(2-methylpropyl)-5-phenyl-3-(3-piperidinopropyl)-1,3-oxazolidine-2-one] | 14.9 |  | 
24 | CC(C)C[C@H]1[C@H](c2ccccc2)OC(=O)N1CCCN1CCCCC1 [Compound 7, (4S,5S)-4-(2-methylpropyl)-5-phenyl-3-(3-piperidinopropyl)-1,3-oxazolidine-2-one] | 64.8 | 30.4 | Blocking rate against glutamic acid [2, 6]: 92%
25 | CC(C)C[C@@H]1[C@@H](c2ccccc2)OC(=O)N1CCCN1CCCCC1 [Compound 8, (4R,5R)-4-(2-methylpropyl)-5-phenyl-3-(3-piperidinopropyl)-1,3-oxazolidine-2-one] | 12 |  | 
26 | CC(C)C[C@H]1[C@@H](c2ccccc2)OC(=O)N1CCCN1CCCCCC1 [Compound 17, (4S,5R)-4-(2-methylpropyl)-3-[3-(perhydroazepine-1-yl-)propyl]-5-phenyl-1,3-oxazolidine-2-one] | 93 | 40.1 | Blocking rate against glutamic acid [2, 6]: 90%
27 | C/C(=C/C=C/[C@@H](C)C(=O)O)[C@H]1CN[C@H](C(=O)O)[C@H]1CC(=O)O [domoic acid] |  |  | agonist for glutamic acid (glutamic acid): extremely strong agonist; effects induced from administration (higher animals): dystropy, rigidity, tremor, convulsion and the like are induced
28 | N[C@H](C(=O)O)c1cc(=O)[nH]o1 [ibotenic acid] |  |  | agonist for glutamic acid (glutamic acid): extremely strong agonist; effects induced from administration (higher animals): dystropy, rigidity, tremor, convulsion and the like are induced
29 | C=C(C)[C@H]1CN[C@H](C(=O)O)[C@H]1CC(=O)O [kainic acid] |  |  | agonist for glutamic acid (glutamic acid): extremely strong agonist; effects induced from administration (higher animals): dystropy, rigidity, tremor, convulsion and the like are induced
30 | N[C@@H](Cn1oc(=O)[nH]c1=O)C(=O)O [quisqualic acid] |  |  | agonist for glutamic acid (glutamic acid): extremely strong agonist; effects induced from administration (higher animals): dystropy, rigidity, tremor, convulsion and the like are induced
